Reference: ChEMBL document CHEMBL1148305, “5-substituted derivatives of 6-halogeno-3-((2-(S)-azetidinyl)methoxy)pyridine and 6-halogeno-3-((2-(S)-pyrrolidinyl)methoxy)pyridine with low picomolar affinity for alpha4beta2 nicotinic acetylcholine receptor and wide range of lipophilicity: potential probes for imaging with positron emission …” (J Med Chem, 2004)

target: Neuronal acetylcholine receptor; alpha4/beta2 (Rattus norvegicus, UniProt P09483+P12390); assay: Ability of compound to compete with 50 pM of 5-[125I]iodo-A-85,380 for receptor binding sites in rat brain membranes at room temperature; format: cell membranes

Structure (SMILES)	Ki [pM]
Clc1ncc(OC[C@@H]2CCCN2)cc1/C=C/c1ccnc(Br)c1	5.6
Fc1ccnc[n+]1-c1cc(OC[C@@H]2CCN2)cnc1Cl	8.8
Brc1ncc(OC[C@@H]2CCN2)cc1-c1cccnc1	6.6
Fc1cc(-c2cc(OC[C@@H]3CCN3)cnc2Cl)ccn1	4.8
Fc1ccc(-c2cc(OC[C@@H]3CCN3)cnc2Cl)cn1	4.9
Clc1ccc(-c2cc(OC[C@@H]3CCN3)cnc2Cl)cn1	4.5
Clc1ncc(OC[C@@H]2CCN2)cc1-c1cccnc1	8.1
Clc1ncc(OC[C@@H]2CCN2)cc1-c1ccc(Br)nc1	4.3
Fc1ccc(-c2cc(OC[C@@H]3CCCN3)cnc2Cl)cn1	17.9
Clc1ncc(OC[C@@H]2CCCN2)cc1-c1ccc(Br)nc1	19.5
Fc1cc(/C=C/c2cc(OC[C@@H]3CCN3)cnc2Cl)ccn1	3.1
Clc1ccc(OC[C@@H]2CCN2)cn1	34
Fc1ncc(/C=C/c2cc(OC[C@@H]3CCN3)cnc2Cl)cc1Br	7.7
Clc1ncc(OC[C@@H]2CCN2)cc1/C=C/c1ccncc1	9
Fc1ncc(-c2cc(OC[C@@H]3CCN3)cnc2Cl)cc1Br	4
Ic1ncc(OC[C@@H]2CCN2)cc1-c1cccnc1	11.7
Clc1ncc(OC[C@@H]2CCN2)cc1-c1ccnc(Br)c1	3.3
Fc1ncc(OC[C@@H]2CCN2)cc1-c1cccnc1	66
Fc1cc(/C=C/c2cc(OC[C@@H]3CCCN3)cnc2Cl)ccn1	9.4
Clc1ncc(OC[C@@H]2CCN2)cc1/C=C/c1ccnc(Br)c1	5.2
